Assays:
[1] = target: TNFα / p55 TNFα receptor (CD120a) (Homo sapiens, UniProt P01375); assay: Binding ELISA: TNF-α binding to plastic coated TNF-R1; conditions: for inhibition at 100 µM: 10^−4 M; for inhibition at 10 µM: 10^−5 M
Procedure: (§1) Compounds were tested for their ability to bind to TNFα or inhibit the interaction of TNFα with its respective receptors; p55 and p75 TNFα receptor. Three binding ELISA assays were undertaken as described by Mancini et al. Biochemical Pharmacology 58, 851-859 (1999). TNFα or receptor (1 μg/mL) was coated on a 96-well plate Maxisorp, overnight at 4° C. After incubation, unbound TNFα or p55 TNFα receptor or p75 TNFα receptor was removed and the plate washed three times with PBS. The plate was then incubated with 100 μL/well of a 2% BSA solution for 1 h at 37° C. to block non specific protein binding. After incubation, the plate was washed three times with PBS. Biotinylated recombinant human TNFα p55 or p75 receptor or biotinylated recombinant human TNFα was added to the wells in the presence or absence of compounds. The plate was incubated for 1 h at 37° C. After incubation, the plate was washed three times with PBS to remove unbound labeled p55 or p75 receptor or recombinant human TNFα. 100 μL of avidin-HRP (diluted 1/2000 in PBS-0.1% BSA) was added to each well and incubated 1 h at 37° C. Bound p55 or p75 receptor or recombinant human TNFα was detected by the addition of 200 μL of 3,3′,5,5′-tetramethylbenzidine (TMB) per well for 15 min. The plate was then read at 655 nm on a EL 800 universal Microplate reader (Bio-Tek, Mississauga, Canada). Data was analyzed in Microsoft Excel and recorded as the percentage of inhibition of p55 or p75 binding to TNFα or TNFα binding to RI (p55) or RII (p75).

[2] = tested on: TNFα production, J774A-1 cells; assay: LPS-induced TNFα production in J774A-1 cells (ELISA); assay type: cell-based; conditions: Mus musculus, J774.A1, 24 h, read-out: IC50 (μM), inhibition of TNFα released by LPS induction
Outline: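 J774-1 macrophages were cultured with or without LPS and compound at 37° C for 24 h. TNFα in supernatants measured by ELISA; IC50 is the concentration inhibiting 50% of TNFα production.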

[3] = PBML cytotoxicity (MTT); assay type: cell-based; conditions: human
Text: (§2) PBML were obtained from the peripheral blood of healthy volunteers. Blood was submitted to gradient centrifugation with Lympholyte-poly (Cedarlane, Hornby, Canada). The layer, which contains the mononuclear leukocytes, was collected and the cells washed three times in PBS. Cells were then suspended in RPMI (Gibco, Burlington, Canada) supplemented with […] (cyclone, Logan USA). Viability was greater than 99% as determined by trypan blue exclusion.
(§3) PBML were resuspended at 2×10^6 cells mL. 100 μL of PBML (2×10^5 cells) were incubated in a 96-well microtiter plate for 48 h in the presence or absence of compound or protein A. Cells were quiescent or stimulated with concanavalin A (ConA; T-cells) or pokeweed mitogen (PWM; B-cells). After incubation, cells were treated with MTT (cytotoxicity) or pulsed with 1 μCi of [^3]-thymidine (DNA synthesis), [^3H]-uridine (RNA synthesis) or [^3]-leucine (protein synthesis) for 6 h. Plates were harvested on a Tomteck and counted on a Microbeta β-counter.

[4] = tested on: peripheral blood mononuclear leukocytes (PBML); assay: PBML DNA synthesis (thymidine); assay type: cell-based, human; conditions: for IC50: Homo sapiens, Leukocyte; for effect on DNA synthesis (in words): resting and stimulated (ConA and PWM) PBML
Text: as §2, §3

[5] = tested on: peripheral blood mononuclear leukocytes (PBML); assay: PBML RNA synthesis (uridine); assay type: cell-based, human; conditions: for IC50: Homo sapiens, Leukocyte; for effect on RNA synthesis (in words): resting and stimulated (ConA and PWM) PBML
Text: as §2, §3

[6] = tested on: mice, oxazolone-induced DTH; assay: Oxazolone-induced delayed-type hypersensitivity (DTH); assay type: in vivo; conditions: for inflammation as seen by ear thickness: administered orally at day 0, 1 and 2, FIG. 8
Procedure: Compounds were tested for their ability to treat oxazolone-induced delayed-type hypersensitivity (DTH) in mice. On day 0, mice were sensitized with 100 μL of oxazolone in 5% acetone. On day 0, 1 and 2, mice were treated by intravenous or oral administrations of the vehicle (control) or methotrexate (MTX, positive control/IV) or hydrocortisone (positive control/PO) or the compound at 50 mg/kg to 300 mg/kg of body weight. Mice were challenged with an application of 50 μL of oxazolone on the surface of the right ear (first challenge, day 3; second challenge, day 10). Ear thickness was measured on day 4 to day 7, and on day 11 to 14. Redness and crust formation was also observed. Mice were sacrificed on day 14. TDTH (CD4) cells play an important role in regulating the intensity of the DTH response. Compounds may exert an inhibitory influence on the DTH response through its inhibition of T-cell activation and DNA, RNA and or protein synthesis.

[7] = tested on: peripheral blood mononuclear leukocytes (PBML); assay: PBML protein synthesis (leucine); assay type: cell-based, human; conditions: for IC50: Homo sapiens, Leukocyte; for effect on protein synthesis (in words): resting and stimulated PBML
Text: as §2, §3

[8] = target: TNFα / p75 TNFα receptor (CD120b) (Homo sapiens, UniProt P01375); assay: Binding ELISA: TNF-α binding to plastic coated TNF-R2; conditions: for inhibition at 100 µM: 10^−4 M; for inhibition at 10 µM: 10^−5 M
Procedure: as §1

[9] = tested on: female Lewis rats, adjuvant-induced arthritis; assay: Freund's adjuvant-induced arthritis (AIA); assay type: in vivo; conditions: for reduction of the inflammatory index: intravenous days −3, −2, −1, 12, 13, 14, 18, 19 and 20, from day 3 to day 5, FIG. 10
Text: AIA was induced in female Lewis rats by the injection of lyophilized Mycobacterium butyricum suspended in mineral oil into the footpad. The development of aridity was monitored over a 3 weeks period post-adjuvant injection, inflammation peaks at day 3 following the adjuvant administration. Immune activation appears around day 14. Compounds were orally or intravenously administered at different doses at day −3, −2 and −1 pre-adjuvant injection and at different regimen as specified in the exponent starting from day 10 through 21 post-adjuvant injection or animals were treated with oral admiration of compound 19a from day −3 to day 21. Body weight was recorded. The arthritis index, which is a measure of inflammation (oedema), redness and stiffness of the articulations, was used to monitor the development of the disease. The degree of arthritis was determined by measuring two perpendicular diameters of the ankles in the mediolateral and dorsoventral planes using a caliper. Joint circumference in millimeters is then calculated using a geometric formula. Both the incidence and severity of the arthritis was evaluated. Incidence is defined as the number of rats with clinical evidence of joint inflammation during the study period.

TNFα / p75 TNFα receptor (CD120b), sequence (P01375 77-233 limits assumed): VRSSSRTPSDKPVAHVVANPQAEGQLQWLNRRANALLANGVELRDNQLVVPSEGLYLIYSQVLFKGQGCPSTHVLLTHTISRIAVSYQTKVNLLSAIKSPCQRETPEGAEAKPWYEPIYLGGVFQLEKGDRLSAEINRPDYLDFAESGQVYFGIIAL
TNFα / p55 TNFα receptor (CD120a), sequence (P01375 77-233 limits assumed): as above

SMILES: Nc1ccc(CCNc2nc(Nc3ccc(CCNc4nc(NCCO)nc(Nc5cccc(N)c5)n4)cc3)nc(Nc3cccc(N)c3)n2)cc1 [Compound 19a]
- inhibition at 100 µM [1]: 13.3%
- inhibition at 10 µM [1]: -4%
- IC50 [2]: 20.7 µM
- IC50 at 48 h ([3]; ConA stimulated PBML): 6800 nM
- IC50 at 48 h ([3]; PWM stimulated PBML): > 10000 nM
- IC50 at 48 h ([3]; Resting PBML): ≥ 10000 nM
- IC50 ([4]; ConA stimulated PBML): 1570 nM
- IC50 ([4]; PWM stimulated PBML): 4380 nM
- IC50 ([4]; Resting PBML): 1900 nM
- effect on DNA synthesis (in words) [4]: suppress
- IC50 ([5]; ConA stimulated PBML): 693 nM
- IC50 ([5]; PWM stimulated PBML): 398 nM
- IC50 ([5]; Resting PBML): 399 nM
- effect on RNA synthesis (in words) [5]: suppress
- potency compared to methotrexate ([6]; FIGS. 6 and 7): equipotent to methotrexate
- inflammation as seen by ear thickness [6]: significant reduction of the inflammation
- IC50 ([7]; ConA stimulated PBML): 3910 nM
- IC50 ([7]; PWM stimulated PBML): 4880 nM
- IC50 ([7]; Resting PBML): 9900 nM
- effect on protein synthesis (in words) [7]: inhibit
- inhibition at 100 µM [8]: 27.4%
- inhibition at 10 µM [8]: 24.3%
- inhibition of chronic inflammation (days 12 to 21) ([9]; IV, days 12 to 19): strong and significant inhibition of inflammation
- inhibition of chronic inflammation (days 12 to 21) ([9]; PO, day 16): strong and significant inhibition of inflammation
- reduction of the inflammatory index [9]: 20%
- inhibition of inflammation ([9]; oral administration, acute inflammation, compared to the control and methotrexate): significant inhibition of inflammation
- inhibition of inflammation ([9]; orally every day (days −3 to 21), from day 13 through day 22, FIG. 12): up to 50%

SMILES: Oc1ccc(CCNc2nc(NCCNc3nc(NCCc4ccc(O)cc4)nc(Nc4ccccc4)n3)nc(Nc3ccccc3)n2)cc1 [Compound 1]
- inhibition at 100 µM [1]: 46%
- inhibition at 10 µM [1]: 28.9%
- IC50 [2]: 9.2 µM
- IC50 at 48 h ([3]; ConA stimulated PBML): 8700 nM
- IC50 at 48 h ([3]; PWM stimulated PBML): > 10000 nM
- IC50 at 48 h ([3]; Resting PBML): > 10000 nM
- IC50 ([4]; ConA stimulated PBML): 1420 nM
- IC50 ([4]; PWM stimulated PBML): 770 nM
- IC50 ([4]; Resting PBML): 2490 nM
- effect on DNA synthesis (in words) [4]: suppress
- IC50 ([5]; ConA stimulated PBML): 920 nM
- IC50 ([5]; PWM stimulated PBML): 660 nM
- IC50 ([5]; Resting PBML): 1100 nM
- effect on RNA synthesis (in words) [5]: suppress
- inflammation as seen by ear thickness [6]: significant reduction of the inflammation
- IC50 ([7]; ConA stimulated PBML): 2440 nM
- IC50 ([7]; PWM stimulated PBML): 2960 nM
- IC50 ([7]; Resting PBML): 6480 nM
- effect on protein synthesis (in words) [7]: inhibit
- inhibition at 100 µM [8]: 63.3%
- inhibition at 10 µM [8]: 38.4%
- reduction of the inflammatory index [9]: 20%

From patent publication US7683061B2, “Triazine dimers for the treatment of autoimmune diseases” (ProMetic BioSciences Inc., priority 2003, dated 2010)
